Columns and labels:
[1] = biological target: NAMPT (human, recombinant, C-terminally His-tagged) (Homo sapiens, UniProt P43490); test: Time-Resolved Fluorescence Resonance Energy Transfer (TR-FRET) Binding Assay of NAMPT; conditions: absence of substrates; 6.8 nM NAMPT, 200 nM probe, equilibrated 3 hours
Outline: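 Displacement of 200 nM Oregon Green-labelled nicotinamide-competitive probe from 6.8 nM His-tagged NAMPT, detected with 1 nM Tb-anti-His; HEPES pH 7.5, 2% DMSO, 3 h room temperature. Em520/Em495 ratios normalized and fit four-parameter logistic for IC50.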

NAMPT = NAMPT (Homo sapiens, UniProt P43490); test: Time-Resolved Fluorescence Resonance Energy Transfer (TR-FRET) Binding Assay of NAMPT with PRPP; conditions: 200 μM PRPP and 2.5 mM ATP; 2 nM NAMPT, 2 nM probe, equilibrated 16 hours
Outline: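 Binding was measured by TR-FRET with 2 nM NAMPT, 2 nM probe and 1 nM Tb-anti-His antibody in the presence of 200 μM PRPP and 2.5 mM ATP, with 2% DMSO. Equilibration lasted 16 h before reading, allowing possible enzymatic modification of compounds.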

Chain of NAMPT (human, recombinant, C-terminally His-tagged) (P43490 whole entry): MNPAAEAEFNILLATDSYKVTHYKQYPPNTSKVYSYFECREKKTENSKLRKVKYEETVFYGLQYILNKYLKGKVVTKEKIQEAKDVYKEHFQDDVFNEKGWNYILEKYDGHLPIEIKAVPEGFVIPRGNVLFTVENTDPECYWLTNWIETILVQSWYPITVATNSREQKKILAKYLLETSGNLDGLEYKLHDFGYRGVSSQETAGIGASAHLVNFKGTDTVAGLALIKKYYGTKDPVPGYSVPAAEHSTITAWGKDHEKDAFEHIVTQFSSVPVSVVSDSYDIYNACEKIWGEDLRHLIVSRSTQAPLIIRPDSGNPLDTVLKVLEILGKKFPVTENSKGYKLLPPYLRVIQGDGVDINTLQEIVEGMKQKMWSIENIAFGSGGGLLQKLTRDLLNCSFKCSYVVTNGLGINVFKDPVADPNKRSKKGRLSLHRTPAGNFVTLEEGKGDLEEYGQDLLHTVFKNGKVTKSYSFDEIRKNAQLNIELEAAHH
Chain of NAMPT (P43490 whole entry): as above

SMILES	IC50 [1]	IC50 (NAMPT)
COCCC(=O)N(CCc1cccc(Cl)c1)c1ncc(C(=O)NCCCn2ccnc2)s1 [Example 106, 2-{[2-(3-chlorophenyl)ethyl](3-methoxypropanoyl)amino}-N-[3-(1H-imidazol-1-yl)propyl]-1,3-thiazole-5-carboxamide acetate (1:1)]	1930 nM	1.8 nM
COCCC(=O)N(CC(=O)N1CCCCC1)c1ncc(C(=O)NCCCn2ccnc2)s1 [Example 196, N-[3-(1H-imidazol-1-yl)propyl]-2-{(3-methoxypropanoyl)[2-oxo-2-(piperidin-1-yl)ethyl]amino}-1,3-thiazole-5-carboxamide]	7010 nM	0.538 nM
O=C(NCCCn1ccnc1)c1cnc(N(Cc2ccc(F)cc2)C(=O)c2cccc(Cl)c2)s1 [Example 12, 2-[(3-chlorobenzoyl)(4-fluorobenzyl)amino]-N-[3-(1H-imidazol-1-yl)propyl]-1,3-thiazole-5-carboxamide]	303 nM	0.241 nM
COCCC(=O)N(CCc1ccccc1F)c1ncc(C(=O)NCCCn2ccnc2)s1 [Example 108, 2-{[2-(2-fluorophenyl)ethyl](3-methoxypropanoyl)amino}-N-[3-(1H-imidazol-1-yl)propyl]-1,3-thiazole-5-carboxamide acetate (1:1)]	1450 nM	1.61 nM
CCOC(=O)CC(NC(=O)N(Cc1ccc(C#N)cc1)c1ncc(C(=O)NCCCn2ccnc2)s1)C(C)C (stereo not drawn) [Example 162, ethyl 3-{[(4-cyanobenzyl)(5-{[3-(1H-imidazol-1-yl)propyl]carbamoyl}-1,3-thiazol-2-yl)carbamoyl]amino}-4-methylpentanoate]	3330 nM	187 nM
CC(=O)O[C@@H](C)C(=O)N(CCC(C)C)c1ncc(C(=O)NCCCn2ccnc2)s1 [Example 153, (2S)-1-[(5-{[3-(1H-imidazol-1-yl)propyl]carbamoyl}-1,3-thiazol-2-yl)(3-methylbutyl)amino]-1-oxopropan-2-yl acetate]	1430 nM	0.286 nM
COCCN(C(=O)Cc1ccc(C#N)cc1)c1ncc(C(=O)NCCCn2ccnc2)s1 [Example 187, 2-{[(4-cyanophenyl)acetyl](2-methoxyethyl)amino}-N-[3-(1H-imidazol-1-yl)propyl]-1,3-thiazole-5-carboxamide]	3210 nM	0.216 nM
CCN(CC)CCCNC(=O)N(Cc1ccc(C#N)cc1)c1ncc(C(=O)NCCCn2ccnc2)s1 [Example 144, 2-[(4-cyanobenzyl){[3-(diethylamino)propyl]carbamoyl}amino]-N-[3-(1H-imidazol-1-yl)propyl]-1,3-thiazole-5-carboxamide]	> 10000 nM	33.2 nM
O=C(NCCCn1ccnc1)c1cnc(N(Cc2ccc(F)cc2)C(=O)NC2CCOC2)s1 (stereo not drawn) [Example 91, 2-[(4-fluorobenzyl)(tetrahydrofuran-3-ylcarbamoyl)amino]-N-[3-(1H-imidazol-1-yl)propyl]-1,3-thiazole-5-carboxamide]	8690 nM	0.543 nM
COCCCN(C(=O)CCOC)c1ncc(C(=O)NCCCn2ccnc2)s1 [Example 176, N-[3-(1H-imidazol-1-yl)propyl]-2-[(3-methoxypropanoyl)(3-methoxypropyl)amino]-1,3-thiazole-5-carboxamide]	7360 nM	0.365 nM
O=C(NCCCn1ccnc1)c1cnc(N(Cc2ccc(F)cc2)C(=O)CN2CCOCC2)s1 [Example 40, 2-[(4-fluorobenzyl)(morpholin-4-ylacetyl)amino]-N-[3-(1H-imidazol-1-yl)propyl]-1,3-thiazole-5-carboxamide]	2200 nM	1.99 nM
CC(C)OCCCNC(=O)N(Cc1ccc(C#N)cc1)c1ncc(C(=O)NCCCn2ccnc2)s1 [Example 126, 2-[(4-cyanobenzyl){[3-(propan-2-yloxy)propyl]carbamoyl}amino]-N-[3-(1H-imidazol-1-yl)propyl]-1,3-thiazole-5-carboxamide]	4180 nM	1.3 nM

From patent US9334264B2, “NAMPT inhibitors” (AbbVie Inc., priority 2012, dated 2016)
